In brackets after ≈: the same amount, converted by molar mass. Like-named read-outs stand apart in the source and are kept apart here.
Experiments:
[1] = system: C. difficile; test: MIC against C. difficile, strain not given; type: cell-based; conditions: Clostridioides difficile, strains of Table 1
Description: Primary screening (Gram-positive bacteria). Primary MIC assays were performed as described by the Clinical and Laboratory Standards Institute for aerobic and anaerobic bacteria. MIC values for vancomycin were within acceptable QC ranges.

[2] = system: E. coli ATCC 25922; test: CO-ADD MIC assay, E. coli ATCC 25922; type: cell-based; conditions: Escherichia coli, ATCC25922, Table S1
Procedure, shortened: (§1)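 CO-ADD whole-cell growth-inhibition MIC screening of the peptidomimetics against MRSA and Gram-negative strains.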

[3] = system: C. difficile 132 (RT027); test: Primary MIC assay, C. difficile 132 (RT027); type: cell-based, Clostridioides difficile; conditions: Table 1; for MIC: Clostridioides difficile, read-out: MIC C. difficile 132 (RT027)
Procedure, shortened: (§2)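 Primary MICs followed Clinical and Laboratory Standards Institute methods, the aerobic procedure for aerobic bacteria and the anaerobic procedure for anaerobes. Vancomycin, colistin, fluconazole and tamoxifen served as positive controls.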

[4] = system: C. difficile ATCC 700057; test: Primary MIC assay, C. difficile ATCC 700057; type: cell-based, Clostridioides difficile; conditions: Table 1; for MIC: Clostridioides difficile, ATCC700057, read-out: MIC C. difficile ATCC 700057
Procedure, shortened: as §2

[5] = Comparative solubility assay (solubility ratio relative to compound 1); type: physicochemical
Text: While the selectivity ratio could be more substantial, this is acceptable for the future development of these gastrointestinal focused compounds. […] These outcomes were confirmed with no issues during the mouse model trials with sufficient solubility in the dosage regimen. Variations on the triazole and O-naphthyl substituents could be made in future studies with the view of enhancing antibacterial activity against C. difficile.

[6] = system: E. faecalis ATCC 29212; test: Primary MIC assay, E. faecalis ATCC 29212; type: cell-based, Enterococcus faecalis; conditions: Enterococcus faecalis, ATCC29212; Table 1; read-out: MIC E. faecalis ATCC 29212
Procedure, shortened: as §2

[7] = system: C. albicans ATCC 90028; test: CO-ADD MIC assay, C. albicans ATCC 90028; type: cell-based; conditions: Candida albicans, ATCC90028, Table S1
Procedure, shortened: (§3)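 Whole-cell growth inhibition (MIC) screening run by CO-ADD. Fluconazole served as antifungal positive control.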

[8] = system: P. aeruginosa ATCC 27853; test: CO-ADD MIC assay, P. aeruginosa ATCC 27853; type: cell-based; conditions: Pseudomonas aeruginosa, ATCC27853, Table S1
Procedure, shortened: as §1

[9] = system: K. pneumoniae ATCC 700603; test: CO-ADD MIC assay, K. pneumoniae ATCC 700603; type: cell-based; conditions: Klebsiella pneumoniae, ATCC700603, Table S1, multi-drug resistant
Procedure, shortened: as §1

[10] = system: S. aureus ATCC 43300; test: CO-ADD MIC assay, S. aureus ATCC 43300 (MRSA); type: cell-based; conditions: Staphylococcus aureus, MRSA, read-out: MIC S. aureus ATCC 43300
Procedure, shortened: as §1

[11] = system: E. coli ATCC 25922; test: Primary MIC assay, E. coli ATCC 25922; type: cell-based; conditions: Escherichia coli, ATCC25922; Table 1; read-out: MIC E. coli ATCC 25922
[12] = system: Cryptococcus neoformans var. grubii ATCC 208821; test: CO-ADD MIC assay, C. neoformans var. grubii ATCC 208821; type: cell-based; conditions: for MIC: Cryptococcus neoformans, ATCC208821, Table S1; for MIC C. neoformans var. grubii ATCC 208821: Table S1
Procedure, shortened: as §3

[13] = Cytotoxicity (CC50) assay by CO-ADD; type: cell-based, human; conditions: human, HEK293 cells (ATCC CRL-1573); Table 1; cytotoxicity on HEK293 cells, tested at ≤32 µg/mL
[14] = system: human erythrocytes; test: Hemolysis assay, HC50 determination; type: cell-based
Description: Hemolysis assay (human erythrocytes)–HC50 determination. These were performed as described previously.

[15] = system: S. aureus NCTC 10442; test: Primary MIC assay, S. aureus NCTC 10442 (MRSA); type: cell-based; conditions: Staphylococcus aureus, MRSA
Procedure, shortened: as §2

[16] = system: S. pneumoniae ATCC 49619; test: Primary MIC assay, S. pneumoniae ATCC 49619; type: cell-based, Streptococcus pneumoniae; conditions: Streptococcus pneumoniae, ATCC49619; Table 1; read-out: MIC S. pneumoniae ATCC 49619
Procedure, shortened: as §2

[17] = system: S. aureus ATCC 29213; test: Primary MIC assay, S. aureus ATCC 29213; type: cell-based; conditions: Staphylococcus aureus, ATCC29213; Table 1; read-out: MIC S. aureus ATCC 29213
Procedure, shortened: as §2

[18] = system: A. baumannii ATCC 19606; test: CO-ADD MIC assay, A. baumannii ATCC 19606; type: cell-based; conditions: Acinetobacter baumannii, ATCC19606, Table S1
Procedure, shortened: as §1

[19] = Table 1, lysis of human erythrocytes
[20] = Table S1, footnote says lysis of sheep erythrocytes
[21] = Table 1, read-out: MIC S. aureus NCTC 10442

SMILES | MIC [2] [µg/mL] | MIC [3] [µg/mL] | MIC [4] [µg/mL] | MIC [6] [µg/mL] | MIC [7] [µg/mL] | MIC [8] [µg/mL] | MIC [9] [µg/mL] | MIC ([10]; Table S1, CO-ADD) [µg/mL] | MIC [11] [µg/mL] | MIC [12] [µg/mL] | MIC C. neoformans var. grubii ATCC 208821 [12] [µg/mL] | CC50 [13] [µg/mL] | HC50 [14, 19] [µg/mL] | HC50 [14, 20] [µg/mL] | MIC [15, 21] [µg/mL] | MIC [16] [µg/mL] | MIC [17] [µg/mL] | MIC [18] [µg/mL] | other results
CC(C)CCc1cn(-c2c(OCC(=O)N[C@H](CCCCN)C(=O)N[C@H](CCCNC(=N)N)Cn3cc(Cc4ccccc4)nn3)ccc3ccccc23)nn1.Cl.Cl [Compound 42] | 32 | 8 | 8 | 8 | > 32 | 32 | > 32 | 8 | 32 | 4 to 8 | 8 | 32 | 32 | 32 | 8 | 8 | 8 | 32 | MIC [1]: 8 µg/mL; MIC C. difficile 132 (RT027) [3]: 8 µg/mL; MIC C. difficile ATCC 700057 [4]: 8 µg/mL; relative solubility ratio (relative to compound 1) [5]: 4; MIC ([10]; Table 2): 8 µg/mL; HC50 ([14]; Table 2, footnote says lysis of sheep erythrocytes): 32 µg/mL; MIC ([15]; MRSA / NCTC 10442 / NCTC 104422, Table 2, read-out: MIC S. aureus NCTC 104422): 8 µg/mL
CC(C)CCc1cnnn1-c1c(OCC(=O)N[C@H](CCCCN)C(=O)N[C@H](CCCNC(=N)N)Cn2cc(CC3CCCCC3)nn2)ccc2ccccc12 [Compound 44] | 32 (≈ 42.3 µM) | 32 (≈ 42.3 µM) | 32 (≈ 42.3 µM) | 16 (≈ 21.1 µM) | 32 (≈ 42.3 µM) | 32 (≈ 42.3 µM) | > 32 | 8 (≈ 10.6 µM) | 64 (≈ 84.5 µM) | 4 to 8 (≈ 5.28 to 10.6 µM) | 8 (≈ 10.6 µM) | > 32 | >32 | > 32 | 4 (≈ 5.28 µM) | 4 (≈ 5.28 µM) | 8 (≈ 10.6 µM) | 32 (≈ 42.3 µM) | –
CC(C)CCOc1ccccc1-n1nncc1COCC(=O)N[C@H](CCCCN)C(=O)N[C@H](CCCNC(=N)N)Cn1cc(C2CCCCC2)nn1 [Compound 48] | > 32 | > 32 | > 32 | > 32 | > 32 | > 32 | > 32 | > 32 | > 32 | > 32 | – | > 32 | 24.5 | 24.5 | > 32 | > 32 | > 32 | > 32 | –
CC(C)CCOc1ccccc1-n1nncc1COCC(=O)N[C@H](CCCCN)C(=O)N[C@H](CCCNC(=N)N)Cn1cc(CC2CCCCC2)nn1 [Compound 49] | > 32 | > 32 | > 32 | > 32 | > 32 | > 32 | > 32 | 32 (≈ 43.4 µM) | > 32 | > 32 | – | > 32 | 17.1 | 17.1 | > 32 | > 32 | 32 (≈ 43.4 µM) | > 32 | –
CC(C)CCOc1ccccc1-n1nncc1COCC(=O)N[C@H](CCCCN)C(=O)N[C@H](CCCNC(=N)N)Cn1cc(Cc2ccccc2)nn1 [Compound 50] | > 32 | > 32 | > 32 | > 32 | > 32 | > 32 | > 32 | 32 (≈ 43.8 µM) | > 32 | > 32 | – | > 32 | 19.8 | 19.8 | > 32 | > 32 | 32 (≈ 43.8 µM) | > 32 | –

Reference: article PMC8388771, “Cationic Peptidomimetic Amphiphiles Having a N-Aryl- or N-Naphthyl-1,2,3-Triazole Core Structure Targeting Clostridioides (Clostridium) difficile: Synthesis, Antibacterial Evaluation, and an In Vivo C. difficile Infection Model” (Antibiotics, 2021)
